Laboratory results taken from US20250034186A1, “ANTIVIRAL COMPOUNDS” (priority 2020, published 2025).

Tests used:
in vitro = in vitro ADME; details: plasma, 37° C., up to 4 h
Experimental: For plasma stability, the compounds were incubated at 2 μM in cynomolgus monkey or human plasma for up to 4 h at 37° C. At desired time points, an aliquot from the incubation was quenched by addition of 9 volumes of 100% acetonitrile supplemented with internal standard. Following the last collection, samples were centrifuged at 3000 g for 30 min and supernatants were transferred to a new plate containing an equal volume of water for analysis by liquid chromatography coupled to triple quadrupole mass spectrometry (LC-MS/MS). Data (analyte to internal standard peak area ratio) were plotted on a semi log scale and fitted using an exponential fit. The half-life (T1/2) was determined assuming first order kinetics.

[1] = Stability assay in human hepatic S9 fractions; assay type: in vitro ADME; details: 37° C., NADPH and UDPGA, read-out: Hum HepS9 t1/2
Experimental: (§1) For S9 stability, the compounds were incubated at 2 μM in cynomolgus monkey or human hepatic S9 fractions for up to 90 min at 37° C. in the presence of NADPH and UDPGA (Phase I and Phase II cofactor, Sigma-Aldrich). At desired time points following compound addition, samples were quenched with 9 volumes of an aqueous solution containing internal standard, 50% acetonitrile and 25% methanol. Sample plates were centrifuged at 3000 g for 30 min, and 10 μL of the resulting solution was analyzed by LC-MS/MS. Data (analyte to internal standard peak area ratio) were plotted on a semi log scale and fitted using an exponential fit. The half-life (T1/2) was determined assuming first order kinetics.

HRV16 = HRV16 HeLa EC50; assay type: cell-based, human rhinovirus; details: Human rhinovirus sp., HRV16; H1-HeLa cells, 96 h, 33° C.
Experimental: H1-HeLa cells, cultured in complete DMEM medium containing 10% heat-inactivated FBS and 1% Penicillin/Streptomycin, were seeded in 96 well plates at 3000 cells/well one day prior to compound dosing and infection. The antiviral activity of each compound was measured in triplicate. Compounds were added directly to the cell cultures in serial 3-fold dilutions using the HP300 digital dispenser (Hewlett Packard, Palo Alto, CA) immediately prior to infection. The plates were transferred to BSL-2 containment and the appropriate dilution of virus stock, previously determined by titration and prepared in cell culture media, was added to test plates containing cells and serially diluted compounds. Each plate included 6 wells of infected untreated cells and 6 wells of uninfected cells that served as 0% and 100% virus inhibition control, respectively. Following the infection, test plates were incubated for 96 h in a tissue culture incubator set to 33° C./5% CO2. Following incubation, the H1-HeLa cells were removed from incubation and allowed to equilibrate to 25° C. Cell viability was determined by removing 100 μL of culture medium and adding 100 μL of Cell-Titer Glo viability reagent. The mixtures were incubated on a shaker for 10 minutes at 25° C., and the luminescence signal was quantified on an Envision luminescence plate reader.

RSV strain A2 = assay: RSV HEp-2 EC50, infectious cytopathic cell protection assay; assay type: cell-based; details: human respiratory syncytial virus, 96 h; RSV A2 in HEp-2 cells, 4 days, Cell TiterGlo
Experimental: Antiviral activity against RSV is determined using an infectious cytopathic cell protection assay in HEp-2 cells. In this assay, compounds inhibiting viral infection and/or replication produce a cytoprotective effect against the virus-induced cell killing that can be quantified using a cell viability reagent. The techniques used here are novel adaptations of methods described in published literature (Chapman et al., Antimicrob Agents Chemother. 2007, 51(9):3346-53.).
HEp-2 cells are obtained from ATCC (Manassas, VI) and maintained in MEM media supplemented with 10% fetal bovine serum and penicillin/streptomycin. Cells are passaged twice a week and kept at subconfluent stage. Commercial stock of RSV strain A2 (Advanced Biotechnologies, Columbia, MD) is titered before compound testing to determine the appropriate dilution of the virus stock that generates desirable cytopathic effect in HEp-2 cells.
For antiviral tests, HEp-2 cells are grown in large cell culture flasks to near confluency but not fully so. The compounds to be tested are prediluted in DMSO in 384-well compound dilution plates, either in an 8 or 40 sample per plate standardized dose response format. 3-fold serial dilution increments of each test compound are prepared in the plates and test samples are transferred via acoustic transfer apparatus (Echo, Labcyte) at 100 nL per well into cell culture assay 384-well plates. Each compound dilution is transferred in single or quadruplicate samples into dry assay plates, which are stored until assay is ready to go. The positive and negative controls are laid out in opposite on ends of the plate in vertical blocks (1 column).
Subsequently, an infectious mixture is prepared using an appropriate dilution of virus stock previously determined by titration with cells at a density of 50,000/mL and 20 μL/well is added to test plates w/compounds via automation (uFlow, Biotek). Each plate includes negative and positive controls (16 replicates each) to create 0% and 100% virus inhibition standards, respectively. Following the infection with RSV, testing plates are incubated for 4 days in a 37° C. cell culture incubator. After the incubation, a cell viability reagent, Cell TiterGlo (Promega, Madison, WI) is added to the assay plates, which are incubated briefly, and a luminescent readout is measured (Envision, Perkin Elmer) in all the assay plates. The RSV-induced cytopathic effect, percentage inhibition, is determined from the levels of remaining cell viability. […] Various potent anti-RSV tool compounds are used as positive controls for antiviral activity.

[2] = Stability assay in cynomolgus monkey hepatic S9 fractions; assay type: in vitro ADME; details: 37° C., NADPH and UDPGA, read-out: Cyno HepS9 t1/2
Experimental: as §1

RSV A2 = assay: RSV NHBE EC50, RSV A2 antiviral assay; assay type: cell-based; details: human respiratory syncytial virus, 96 h; RSV A2 in NHBE cells, 4 days
Experimental: Normal human bronchial epithelial (NHBE) cells were purchased from Lonza (Walkersville, MD, Cat #CC-2540) and cultured in Bronchial Epithelial Growth Media (BEGM) (Lonza, Walkersville, MD, Cat #CC-3170). The cells were passaged 1-2 times per week to maintain <80% confluency. The NHBE cells were discarded after 6 passages in culture.
To conduct the RSV A2 antiviral assay, NHBE cells were plated in 96-well plates at a density of 7,500 cells per well in BEGM and allowed to attach overnight at 37° C. Following attachment, 100 μL of cell culture media was removed and 3-fold serially diluted compound was added using a Hewlett-Packard D300 Digital Dispenser. The final concentration of DMSO was normalized to 0.05%. Following compound addition, the NHBE cells were infected by the addition of 100 μL of RSV A2 at a titer of 1×10^4.5 tissue culture infectious doses/mL in BEGM and then incubated at 37° C. for 4 days. The NHBE cells were then allowed to equilibrate to 25° C. and cell viability was determined by removing 100 μL of culture medium and adding 100 μL of Cell-Titer Glo viability reagent. The mixtures were incubated for 10 minutes at 25° C., and the luminescence signal was quantified on an Envision luminescence plate reader.

CCC(CC)COC(=O)[C@H](C)N[P@@](=O)(OC[C@@]1(C#N)O[C@@H](c2ccc3c(N)ncnn23)[C@H](O)[C@@H]1O)Oc1ccccc1 (single isomer, unassigned) [Compound 7]
half-life at 2 μM (in vitro; cynomolgus monkey, read-out: Cyno Plasma t1/2): 2.97 h
half-life at 2 μM (in vitro; human, read-out: Hum Plasma t1/2): 3.88 h
half-life at 2 μM [1]: 6 min
EC50 (HRV16): 183 nM
EC50 (RSV strain A2): 124 nM
half-life at 2 μM [2]: 2 min
EC50 (RSV A2): 91 nM
